Calls of active or inactive are those of the source. The rule behind the calls is not given here.
Legend:
[1] = target: T1, Nucleotide-binding oligomerization domain-containing protein 1 (Mus musculus) (UniProt Q8BHB0); experiment: Antagonist activity at mouse NOD1 expressed in HEK-Blue cells assessed as decrease in SEAP secretion incubated for 3 hrs followed by C12-iE-DAP stimulation for 20 hrs by spectrophotometry; format: cell-based; conditions: HEK-Blue mNOD1, filed as antagonist, time 23.0 hrs
T1 sequence (whole entry): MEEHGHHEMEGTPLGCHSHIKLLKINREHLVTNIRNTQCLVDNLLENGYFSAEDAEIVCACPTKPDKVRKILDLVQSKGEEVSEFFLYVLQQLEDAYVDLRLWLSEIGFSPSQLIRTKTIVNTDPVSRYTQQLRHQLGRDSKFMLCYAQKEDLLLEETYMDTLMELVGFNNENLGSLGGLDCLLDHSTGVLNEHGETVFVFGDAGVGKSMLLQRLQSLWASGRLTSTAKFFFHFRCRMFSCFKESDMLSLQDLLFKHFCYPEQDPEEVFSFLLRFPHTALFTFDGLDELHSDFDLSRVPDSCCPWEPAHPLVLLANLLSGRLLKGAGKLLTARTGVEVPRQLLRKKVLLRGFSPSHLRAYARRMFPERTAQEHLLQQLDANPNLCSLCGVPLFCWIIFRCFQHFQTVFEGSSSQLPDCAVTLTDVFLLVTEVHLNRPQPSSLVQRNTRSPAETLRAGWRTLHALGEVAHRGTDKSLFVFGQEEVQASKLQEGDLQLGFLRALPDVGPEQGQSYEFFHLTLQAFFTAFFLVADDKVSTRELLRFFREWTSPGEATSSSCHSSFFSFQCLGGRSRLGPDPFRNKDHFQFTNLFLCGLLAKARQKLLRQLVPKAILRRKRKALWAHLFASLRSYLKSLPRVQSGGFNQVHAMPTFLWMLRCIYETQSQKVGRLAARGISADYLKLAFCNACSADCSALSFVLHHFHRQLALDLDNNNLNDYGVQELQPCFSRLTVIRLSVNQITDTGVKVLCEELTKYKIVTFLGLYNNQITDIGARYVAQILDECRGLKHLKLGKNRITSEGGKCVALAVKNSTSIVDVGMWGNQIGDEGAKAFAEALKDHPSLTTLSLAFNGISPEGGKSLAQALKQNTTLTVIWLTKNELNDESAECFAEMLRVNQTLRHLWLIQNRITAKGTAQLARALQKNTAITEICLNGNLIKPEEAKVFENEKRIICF

[2] = Cytotoxicity against HEK-Blue mNOD1 cells by SRB assay; format: toxicity, cell-based; conditions: human
[3] = AUC (infinity) in C57BL/6 mouse at 2 mg/kg, iv by LC-MS/MS analysis; format: ADME, organism-based; conditions: in vivo
[4] = AUC (infinity) in C57BL/6 mouse at 20 mg/kg, po by LC-MS/MS analysis; format: ADME, organism-based; conditions: in vivo
[5] = target: T2, Nucleotide-binding oligomerization domain-containing protein 1 (Homo sapiens) (UniProt Q9Y239); experiment: Antagonist activity at NOD1 in human THP-1 cells assessed as decrease in phosphorylated RIP2 level at 0.1 to 1 uM incubated for 1 hr followed by C12-iE-DAP stimulation for 30 mins by Western blot analysis; format: cell-based; conditions: filed as antagonist, dose 0.1-1 µM, time 1.5 hrs
T2 sequence (whole entry): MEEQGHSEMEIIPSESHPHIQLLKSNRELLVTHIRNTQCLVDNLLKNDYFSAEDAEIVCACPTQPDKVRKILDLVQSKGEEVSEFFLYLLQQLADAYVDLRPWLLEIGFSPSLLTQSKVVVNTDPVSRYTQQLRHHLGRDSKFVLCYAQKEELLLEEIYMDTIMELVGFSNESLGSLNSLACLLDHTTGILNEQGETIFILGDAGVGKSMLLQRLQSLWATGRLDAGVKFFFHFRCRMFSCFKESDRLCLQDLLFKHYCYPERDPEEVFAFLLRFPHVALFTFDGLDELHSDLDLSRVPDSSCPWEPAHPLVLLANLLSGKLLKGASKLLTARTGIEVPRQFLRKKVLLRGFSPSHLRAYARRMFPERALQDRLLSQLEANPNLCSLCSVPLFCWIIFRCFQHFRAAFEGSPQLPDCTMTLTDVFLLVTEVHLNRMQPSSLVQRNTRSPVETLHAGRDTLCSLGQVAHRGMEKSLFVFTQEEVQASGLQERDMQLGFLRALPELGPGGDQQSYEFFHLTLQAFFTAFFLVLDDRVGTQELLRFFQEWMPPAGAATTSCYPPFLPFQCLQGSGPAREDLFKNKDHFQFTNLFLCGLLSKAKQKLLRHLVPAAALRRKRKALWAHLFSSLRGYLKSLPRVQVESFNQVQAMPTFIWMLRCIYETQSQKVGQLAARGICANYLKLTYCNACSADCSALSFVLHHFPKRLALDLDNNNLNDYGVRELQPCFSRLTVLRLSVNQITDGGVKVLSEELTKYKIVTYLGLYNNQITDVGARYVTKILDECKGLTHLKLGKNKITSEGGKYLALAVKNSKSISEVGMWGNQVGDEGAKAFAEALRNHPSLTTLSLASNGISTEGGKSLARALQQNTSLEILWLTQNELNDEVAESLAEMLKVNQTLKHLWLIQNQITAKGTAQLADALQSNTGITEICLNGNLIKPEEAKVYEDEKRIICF

[6] = test system: AGS; experiment: Anti-inflammatory activity in human AGS cells assessed as decrease in CXCL8 mRNA level at 1 uM pretreated for 1 hr followed by C12-iE-DAP stimulation for 2 hrs by RT-qPCR analysis; format: functional, cell-based; conditions: time 3.0 hrs
[7] = test system: BMDM; experiment: Anti-inflammatory activity in mouse BMDM cells assessed as decrease in CXCL8 mRNA level at 1 to 5 uM pretreated for 1 hr followed by infection with Helicobacter pylori for 2 hrs by RT-qPCR analysis; format: functional, cell-based; conditions: dose 1-5 µM, time 3.0 hrs
[8] = target: T1, Nucleotide-binding oligomerization domain-containing protein 1 (Mus musculus); experiment: Antagonist activity at NOD1 in mouse BMDM cells assessed as decrease in phosphorylated JNK level at 0.1 to 1 uM incubated for 1 hr followed by C12-iE-DAP stimulation for 30 mins by Western blot analysis; format: cell-based; conditions: filed as antagonist, dose 0.1-1 µM, time 1.5 hrs
[9] = Half life in C57BL/6 mouse at 2 mg/kg, iv by LC-MS/MS analysis; format: ADME, organism-based; conditions: in vivo
[10] = Anti-inflammatory activity in mouse BMDM cells assessed as decrease in TNF-alpha mRNA level at 0.1 uM pretreated for 1 hr followed by C12-iE-DAP stimulation for 2 hrs by RT-qPCR analysis relative to control; format: functional; design: scale not given: the % may be the effect or the level left; conditions: time 3 hrs
[11] = MRT (infinity) in C57BL/6 mouse at 2 mg/kg, iv by LC-MS/MS analysis; format: ADME, organism-based; conditions: in vivo
[12] = target: T2, Nucleotide-binding oligomerization domain-containing protein 1 (Homo sapiens); experiment: Antagonist activity at human NOD1 expressed in HEK-Blue cells assessed as decrease in SEAP secretion incubated for 3 hrs followed by C12-iE-DAP stimulation for 20 hrs by spectrophotometry; format: cell-based; conditions: HEK-Blue hNOD1, filed as antagonist, time 23.0 hrs
[13] = Oral bioavailability in C57BL/6 mouse at 20 mg/kg by LC-MS/MS analysis; format: ADME, organism-based; conditions: in vivo
[14] = target: T2, Nucleotide-binding oligomerization domain-containing protein 1 (Homo sapiens); experiment: Antagonist activity at NOD1 in human THP-1 cells assessed as decrease in phosphorylated p65 level at 0.1 to 1 uM incubated for 1 hr followed by C12-iE-DAP stimulation for 30 mins by Western blot analysis; format: cell-based; conditions: filed as antagonist, dose 0.1-1 µM, time 1.5 hrs

In the case of `CS(=O)(=O)c1ccc2nc(Cl)n(-c3ccc(Cl)c(NS(=O)(=O)c4c(F)cccc4F)c3)c(=O)c2c1`, the Activity [1] is reported as “Dose-dependent-effect”, the Activity [2] is reported as “Non-toxic” and the AUC [3] is reported as 0.0753 µg·h/mL. The AUC(0-inf) [4] was 0.0359 µg·h/mL, the inhibition [5] was “Active” and the Activity [6] was “Active”. The Activity [7] was “Active”, the inhibition [8] was “Active” and the t1/2 [9] was 3.9 min. The Activity [10] was about 100%, the MRT inf [11] was 2.76 min and the Activity [12] was “Dose-dependent-effect”. For the same compound, the bioavailability [13] was 4.77% and the inhibition [14] was “Active”.
